Laboratory results published in ChEMBL document CHEMBL4411307, “N,N'-diaryl-bishydrazones in a biphenyl platform: Broad spectrum antifungal agents” (Eur J Med Chem, 2019).
≈ marks a conversion by molar mass, not a printed value. Calls of active or inactive are those of the source. The calls are words filed in the database; no cut-off is given here.

Assays:
Listeria monocytogenes = assay: Antibacterial activity against Listeria monocytogenes; assay type: functional, organism-based
Staphylococcus aureus = assay: Antibacterial activity against methicillin-resistant Staphylococcus aureus; assay type: functional, organism-based
Enterococcus = assay: Antibacterial activity against vancomycin-resistant Enterococcus; assay type: functional, organism-based
Candida albicans [1] = assay: Antifungal activity against fluconazole/ITC-resistant Candida albicans ATCC 10231 measured after 48 hrs by CLSI M27-A3 protocol based method; assay type: functional; details: ATCC 10231, 48 h
Candida albicans [2] = assay: Antifungal activity against fluconazole/ITC-resistant Candida albicans ATCC 64124 measured after 48 hrs by CLSI M27-A3 protocol based method; assay type: functional; details: ATCC 64124, 48 h
Candida albicans [3] = assay: Antifungal activity against fluconazole/ITC-susceptible Candida albicans ATCC MYA-2876 measured after 48 hrs by CLSI M27-A3 protocol based method; assay type: functional; details: ATCC MYA-2876, 48 h
Candida albicans [4] = assay: Antifungal activity against fluconazole/ITC-resistant Candida albicans ATCC 90819 measured after 48 hrs by CLSI M27-A3 protocol based method; assay type: functional; details: ATCC 90819, 48 h
Candida albicans [5] = assay: Antifungal activity against fluconazole/ITC-susceptible Candida albicans ATCC MYA-2310 measured after 48 hrs by CLSI M27-A3 protocol based method; assay type: functional; details: ATCC MYA-2310, 48 h
Candida albicans [6] = assay: Antifungal activity against fluconazole/ITC-resistant Candida albicans ATCC MYA-1237 measured after 48 hrs by CLSI M27-A3 protocol based method; assay type: functional; details: ATCC MYA-1237, 48 h
Candida albicans [7] = assay: Antifungal activity against fluconazole/ITC-resistant Candida albicans ATCC MYA-1003 measured after 48 hrs by CLSI M27-A3 protocol based method; assay type: functional; details: ATCC MYA-1003, 48 h
Nakaseomyces glabratus = assay: Antifungal activity against Candida glabrata ATCC 2001 measured after 48 hrs by CLSI M27-A3 protocol based method; assay type: functional; details: CBS 138, 48 h
Pichia kudriavzevii = assay: Antifungal activity against Candida krusei ATCC 6258 measured after 48 hrs by CLSI M27-A3 protocol based method; assay type: functional; details: ATCC 6258, 48 h
Candida parapsilosis = assay: Antifungal activity against Candida parapsilosis ATCC 22019 measured after 48 hrs by CLSI M27-A3 protocol based method; assay type: functional; details: Lodderomyces parapsilosis, ATCC 22019, 48 h
Aspergillus flavus = assay: Antifungal activity against Aspergillus flavus ATCC MYA-3631 measured after 48 hrs by CLSI M38-A2 protocol based method; assay type: functional; details: ATCC MYA-3631, 48 h
Aspergillus nidulans = assay: Antifungal activity against Aspergillus nidulans ATCC 38163 measured after 48 hrs by CLSI M38-A2 protocol based method; assay type: functional; details: ATCC 38163, 48 h
Aspergillus terreus = assay: Antifungal activity against Aspergillus terreus ATCC MYA-3633 measured after 48 hrs by CLSI M38-A2 protocol based method; assay type: functional; details: ATCC MYA-3633, 48 h

Row | Compound | Activity (Listeria monocytogenes) | Activity (Staphylococcus aureus) | Activity (Enterococcus) | MIC (Candida albicans [1]) [µg/mL] | MIC (Candida albicans [2]) [µg/mL] | MIC (Candida albicans [3]) [µg/mL] | MIC (Candida albicans [4]) [µg/mL] | MIC (Candida albicans [5]) [µg/mL] | MIC (Candida albicans [6]) [µg/mL] | MIC (Candida albicans [7]) [µg/mL] | MIC (Nakaseomyces glabratus) [µg/mL] | MIC (Pichia kudriavzevii) [µg/mL] | MIC (Candida parapsilosis) [µg/mL] | MIC (Aspergillus flavus) [µg/mL] | MIC (Aspergillus nidulans) [µg/mL] | MIC (Aspergillus terreus) [µg/mL]
1 | Brc1ccc(N/N=C/c2ccc(-c3cccc(/C=N/Nc4ccc(Br)cc4)c3)cc2)cc1 | inactive | inactive | inactive | 31.3 (≈ 57.1 µM) | 31.3 (≈ 57.1 µM) | 31.3 (≈ 57.1 µM) | > 31.3 | > 31.3 | 7.8 (≈ 14.2 µM) | 31.3 (≈ 57.1 µM) | 7.8 (≈ 14.2 µM) | > 31.3 | > 31.3 | 31.3 (≈ 57.1 µM) | > 31.3 | > 31.3
2 | Fc1cc(F)cc(N/N=C/c2ccc(-c3cccc(/C=N/Nc4cc(F)cc(F)c4)c3)cc2)c1 | inactive | inactive | inactive | 3.9 (≈ 8.43 µM) | 15.6 (≈ 33.7 µM) | 31.3 (≈ 67.7 µM) | > 31.3 | > 31.3 | 31.3 (≈ 67.7 µM) | 31.3 (≈ 67.7 µM) | > 31.3 | > 31.3 | > 31.3 | > 31.3 | > 31.3 | > 31.3
3 | CC(C)(C)N/N=C/c1ccc(-c2ccc(/C=N/NC(C)(C)C)cc2)cc1 | inactive | inactive | inactive | 31.3 (≈ 89.3 µM) | 31.3 (≈ 89.3 µM) | > 31.3 | > 31.3 | 31.3 (≈ 89.3 µM) | 31.3 (≈ 89.3 µM) | > 31.3 | 15.6 (≈ 44.5 µM) | 31.3 (≈ 89.3 µM) | > 31.3 | > 31.3 | 31.3 (≈ 89.3 µM) | > 31.3
4 | Fc1cc(F)cc(N/N=C/c2ccc(-c3ccc(/C=N/Nc4cc(F)cc(F)c4)cc3)cc2)c1 | inactive | inactive | inactive | 15.6 (≈ 33.7 µM) | > 31.3 | > 31.3 | > 31.3 | > 31.3 | > 31.3 | > 31.3 | > 31.3 | > 31.3 | > 31.3 | > 31.3 | > 31.3 | > 31.3
5 | C/C(=N\NC(=N)N)c1ccc(-c2ccc(/C(C)=N/NC(=N)N)cc2)cc1 | – | – | – | 3.9 (≈ 11.1 µM) | 3.9 (≈ 11.1 µM) | 15.6 (≈ 44.5 µM) | 3.9 (≈ 11.1 µM) | 15.6 (≈ 44.5 µM) | 15.6 (≈ 44.5 µM) | 15.6 (≈ 44.5 µM) | 7.8 (≈ 22.3 µM) | 3.9 (≈ 11.1 µM) | 1.95 (≈ 5.56 µM) | > 31.3 | 15.6 (≈ 44.5 µM) | > 31.3
6 | Fc1cccc(N/N=C/c2ccc(-c3cccc(/C=N/Nc4cccc(F)c4F)c3)cc2)c1F | inactive | inactive | inactive | > 31.3 | > 31.3 | > 31.3 | > 31.3 | > 31.3 | > 31.3 | > 31.3 | > 31.3 | > 31.3 | > 31.3 | > 31.3 | > 31.3 | > 31.3
7 | Fc1cccc(N/N=C/c2ccc(-c3ccc(/C=N/Nc4cccc(F)c4F)cc3)cc2)c1F | inactive | inactive | inactive | 31.3 (≈ 67.7 µM) | > 31.3 | > 31.3 | > 31.3 | > 31.3 | > 31.3 | > 31.3 | > 31.3 | > 31.3 | > 31.3 | > 31.3 | > 31.3 | > 31.3
